Measurements taken from paper PMC1664607 (PLoS Medicine, 2006).
In brackets after ≈: the same amount, converted by molar mass.

How the values were obtained:
S. typhimurium TA1537 = test: Bacterial reverse mutation (BRM) test; assay type: cell-based
Protocol: (§1) The BRM test was performed in accordance with OECD Guideline 471 using Salmonella tyiphimurium TA98, TA100, TA1535, and TA1537, and Escherichia coli WP2 uvrA [11]. Each bacterial strain was pre-cultured at 37 °C for 18 h using a nutrient broth (Nissui Pharmaceutical; http://www.nissui-pharm.co.jp/index_e.html). After adjustment to 2.4 at OD660 nm, each bacterial suspension was added to a test tube containing the designated compound in the absence or presence of rat liver microsome (S9) mix. After a 20-min incubation at 37 °C, top agar was added to each test tube and the contents were poured into minimum essential medium (Oriental Yeast; http://www.oyc.co.jp/e/index.htm). The number of revertants was counted 48 h after incubation at 37 °C.

S. typhimurium TA98 = test: Bacterial reverse mutation (BRM) test; assay type: cell-based
Protocol: as §1

E. coli WP2 uvr A = test: Bacterial reverse mutation (BRM) test; assay type: cell-based
Protocol: as §1

S. typhimurium TA1535 = test: Bacterial reverse mutation (BRM) test; assay type: cell-based
Protocol: as §1

CYP2C8/9 = test: Tolubutamide methylhydroxylation in human liver microsomes; assay type: in vitro ADME; settings: 400 μM tolbutamide
[1] = assay type: in vitro ADME, human, rat, mouse, dog, rabbit, and monkey; settings: 2 h
Protocol: The study was undertaken to investigate the metabolites produced by the metabolic reactions of OPC-67683 using human, rat, mouse, dog, rabbit, and monkey liver microsomes. Pooled human liver microsomes (20 mg/ml) from ten donors were prepared at the Biomedical Research Institute, Human and Animal Bridge Discussion Group (Chiba, Japan). Human liver samples were legally procured from the National Disease Research Interchange (http://www.ndriresource.org/) through the international partnership with the Human and Animal Bridge Discussion Group. The study was conducted in accordance with the Declaration of Helsinki.
The reactions were performed in duplicate in a shaking water bath at 37 °C for 2 h. The incubation mixtures were extracted with acetonitrile and ethyl acetate, and the samples were analyzed by HPLC and LC-ESI-MS/MS.

[2] = tested on: M. tuberculosis ATCC 35837 (H37Rv-E-R); test: microbe, parasite or virus in culture; assay type: cell-based; settings: Mycobacterium tuberculosis, 336 h
CYP1A1/2 = test: 7-Ethoxyresorufin O-deethylation in human liver microsomes; assay type: in vitro ADME; settings: 0.5 μM 7-ethoxyresorufin
[3] = tested on: M. tuberculosis ATCC 25618 (H37Rv); test: Susceptibility testing (agar dilution MIC); assay type: cell-based; settings: Mycobacterium tuberculosis, 336 h; 7H11 agar, 37 °C, 14 d; read-out: MIC
CYP2D6 = target: T1, CYP2D6 (Homo sapiens, UniProt P10635); test: Bufuralol 1′ -hydroxylation in human liver microsomes; assay type: in vitro ADME; settings: 20 μM bufuralol
T1 construct: Standard incubation mixtures of 0.5 ml contained microsomal protein (0.1–0.5 mg); from tissue; host or cells: pooled human liver microsomes (ten donors)
T1 sequence (P10635 whole entry): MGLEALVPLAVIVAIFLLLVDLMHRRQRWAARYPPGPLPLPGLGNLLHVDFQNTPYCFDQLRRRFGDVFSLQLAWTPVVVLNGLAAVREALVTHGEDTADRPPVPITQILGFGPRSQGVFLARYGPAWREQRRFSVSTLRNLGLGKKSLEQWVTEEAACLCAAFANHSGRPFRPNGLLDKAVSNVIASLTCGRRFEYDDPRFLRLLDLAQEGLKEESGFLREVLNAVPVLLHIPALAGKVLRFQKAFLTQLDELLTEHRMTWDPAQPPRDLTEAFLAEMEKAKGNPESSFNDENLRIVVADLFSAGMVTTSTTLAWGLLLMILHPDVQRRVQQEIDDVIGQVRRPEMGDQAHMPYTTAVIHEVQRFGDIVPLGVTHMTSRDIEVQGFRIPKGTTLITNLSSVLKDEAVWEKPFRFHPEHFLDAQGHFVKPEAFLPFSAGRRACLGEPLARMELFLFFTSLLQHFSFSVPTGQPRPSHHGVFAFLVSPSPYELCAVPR

C[C@]1(COc2ccc(N3CCC(Oc4ccc(OC(F)(F)F)cc4)CC3)cc2)Cn2cc([N+](=O)[O-])nc2O1 [OPC-67683, (R)-2-methyl-6-nitro-2-(4-[4-(4-trifluoromethoxyphenoxy)piperidin-1-yl]phenoxymethyl}-2,3-dihydroimidazo[2,1-b]oxazole]
Revertants/Plate (S. typhimurium TA1537; S9 mix +, 312.5 μg/plate): 73 Revertants/Plate | Revertants/Plate (S. typhimurium TA1537; S9 mix +, 625 μg/plate): 72 Revertants/Plate | Revertants/Plate (S. typhimurium TA1537; S9 mix +, 1,250 μg/plate): 66 Revertants/Plate | Revertants/Plate (S. typhimurium TA1537; S9 mix +, 2,500 μg/plate): 63 Revertants/Plate | Revertants/Plate (S. typhimurium TA1537; S9 mix +, 5,000 μg/plate): 74 Revertants/Plate | Revertants/Plate (S. typhimurium TA1537; S9 mix −, 312.5 μg/plate): 60 Revertants/Plate | Revertants/Plate (S. typhimurium TA1537; S9 mix −, 625 μg/plate): 62 Revertants/Plate | Revertants/Plate (S. typhimurium TA1537; S9 mix −, 1,250 μg/plate): 54 Revertants/Plate | Revertants/Plate (S. typhimurium TA1537; S9 mix −, 2,500 μg/plate): 61 Revertants/Plate | Revertants/Plate (S. typhimurium TA1537; S9 mix −, 5,000 μg/plate): 63 Revertants/Plate | Revertants/Plate (S. typhimurium TA98; S9 mix +, 312.5 μg/plate): 31 Revertants/Plate | Revertants/Plate (S. typhimurium TA98; S9 mix +, 625 μg/plate): 31 Revertants/Plate | Revertants/Plate (S. typhimurium TA98; S9 mix +, 1,250 μg/plate): 30 Revertants/Plate | Revertants/Plate (S. typhimurium TA98; S9 mix +, 2,500 μg/plate): 31 Revertants/Plate | Revertants/Plate (S. typhimurium TA98; S9 mix +, 5,000 μg/plate): 35 Revertants/Plate | Revertants/Plate (S. typhimurium TA98; S9 mix −, 312.5 μg/plate): 29 Revertants/Plate | Revertants/Plate (S. typhimurium TA98; S9 mix −, 625 μg/plate): 29 Revertants/Plate | Revertants/Plate (S. typhimurium TA98; S9 mix −, 1,250 μg/plate): 34 Revertants/Plate | Revertants/Plate (S. typhimurium TA98; S9 mix −, 2,500 μg/plate): 37 Revertants/Plate | Revertants/Plate (S. typhimurium TA98; S9 mix −, 5,000 μg/plate): 31 Revertants/Plate | Revertants/Plate (E. coli WP2 uvr A; S9 mix +, 312.5 μg/plate): 23 Revertants/Plate | Revertants/Plate (E. coli WP2 uvr A; S9 mix +, 625 μg/plate): 20 Revertants/Plate | Revertants/Plate (E. coli WP2 uvr A; S9 mix +, 1,250 μg/plate): 25 Revertants/Plate | Revertants/Plate (E. coli WP2 uvr A; S9 mix +, 2,500 μg/plate): 23 Revertants/Plate | Revertants/Plate (E. coli WP2 uvr A; S9 mix +, 5,000 μg/plate): 29 Revertants/Plate | Revertants/Plate (E. coli WP2 uvr A; S9 mix −, 312.5 μg/plate): 23 Revertants/Plate | Revertants/Plate (E. coli WP2 uvr A; S9 mix −, 625 μg/plate): 25 Revertants/Plate | Revertants/Plate (E. coli WP2 uvr A; S9 mix −, 1,250 μg/plate): 20 Revertants/Plate | Revertants/Plate (E. coli WP2 uvr A; S9 mix −, 2,500 μg/plate): 24 Revertants/Plate | Revertants/Plate (E. coli WP2 uvr A; S9 mix −, 5,000 μg/plate): 24 Revertants/Plate | Revertants/Plate (S. typhimurium TA1535; S9 mix +, 625 μg/plate): 6 Revertants/Plate | Revertants/Plate (S. typhimurium TA1535; S9 mix +, 2,500 μg/plate): 8 Revertants/Plate | Revertants/Plate (S. typhimurium TA1535; S9 mix +, 5,000 μg/plate): 9 Revertants/Plate | Revertants/Plate (S. typhimurium TA1535; S9 mix −, 312.5 μg/plate): 6 Revertants/Plate | Revertants/Plate (S. typhimurium TA1535; S9 mix −, 625 μg/plate): 9 Revertants/Plate | Revertants/Plate (S. typhimurium TA1535; S9 mix −, 2,500 μg/plate): 7 Revertants/Plate | Revertants/Plate (S. typhimurium TA1535; S9 mix −, 5,000 μg/plate): 6 Revertants/Plate | Percent of Control (CYP2C8/9; 10 μM): 107.2% of Control | Percent of Control (CYP2C8/9; 30 μM): 107.8% of Control | Percent of Control (CYP2C8/9; 100 μM): 108.5% of Control | Stability in the in vitro metabolism of liver microsomes [1]: stable | MIC [2]: 0.012 µg/mL (≈ 0.0225 µM) | Percent of Control (CYP1A1/2; 10 μM): 98.4% of Control | Percent of Control (CYP1A1/2; 30 μM): 102.5% of Control | Percent of Control (CYP1A1/2; 100 μM): 98.6% of Control | MIC [3]: 0.012 µg/mL (≈ 0.0225 µM) | Percent of Control (CYP2D6; 10 μM): 99.1% of Control | Percent of Control (CYP2D6; 30 μM): 103.3% of Control | Percent of Control (CYP2D6; 100 μM): 97.8% of Control
